Laboratory results as given in US20050271721A1, “Carvedilol-hydrophilic solutions” (priority 2000, published 2005).

Columns and labels:
[1] = solubility of carvedilol in aqueous media; format: physicochemical; details: about pH 1-2
[2] = investigations into the gastrointestinal resorption of carvedilol; format: in vivo; details: passage through the gastrointestinal tract
[3] = dissolution of carvedilol in melted polyethylene glycol 6,000; format: physicochemical; details: polyethylene glycol 6,000 melted at about 70° C.
Description: Thus, carvedilol can be dissolved in polyethylene glycol 6,000 which is melted at about 70° C. In this manner there are obtained highly concentrated solutions of carvedilol (up to 500 mg/ml), with the carvedilol being present distributed as a molecular dispersion in the solution. Moreover, further additives, for example cellulose derivatives such as hydroxypropylmethylcelluloses or hydroxypropylcelluloses, can be admixed in order to control the release rate of the active substance. Further, the compositions in accordance with the invention can contain highly dispersed silicon dioxide as an anti-caking agent.

[4] = resorption after peroral administration of rapid release carvedilol formulations; format: in vivo; details: e.g. the commercial formulation
Text: In the case of the peroral administration of rapid release carvedilol formulations, e.g. the commercial formulation, resorption quotas of up to 80% are achieved, with a considerable part of the resorbed carvedilol being very rapidly metabolized.

solubility in the strongly acidic region [1]: very low solubility
concentration of the carvedilol solution (molecular dispersion) [3]: up to 500 mg/ml
resorption quota [4]: up to 80%
Compound: COc1ccccc1OCCNCC(O)COc1cccc2[nH]c3ccccc3c12 (stereo not shown) [carvedilol, 1-(4-carbazolyloxy)-3-[2-(2-methoxyphenoxy)ethyl-amino]-2-propanol]
resorption in the ileum and colon relative to the stomach [2]: only a fraction of the resorption in the stomach
